From US20200032350A1, “COMPANION DIAGNOSTICS FOR LEUKEMIA TREATMENT” (JOHANN WOLFGANG GOETHE-UNIVERSITÄT FRANKFURT AM MAIN, priority 2017, published 2020)

Columns and labels:
H/M cells [1] = test: treatment of mice transplanted with H/M cells; type: in vivo
Source text: (§1) FIG. 7. Meis1 sensitizes Hoxa9-driven leukemia to Syk inhibition. (A) SYK protein expression in H/M cells transfected with either a control shRNA (GL2) or two shRNAs targeting SYK. Actin was used as loading control for relative protein quantification. (B) Percentage of BFP-positive shRNA-expressing cells relative to BFP-negative shRNA-negative cells at the times indicated (mean±SD, normalized to day 0). (C) Same as (A), before and after five days of doxycycline (dox) treatment in vivo. (D) Kaplan-Meier survival curves of mice transplanted with H/M cells and treated with doxycycline for 43 days to express non-specific control and Syk-specific shRNA (n=8). p-value is from a Mantel-Cox test. (E) Percentage of YFP-positive cells from peripheral blood of mice transplanted with H (left) or H/M (right) cells after treating for 7 days with R788 or placebo. Measurements were taken at the indicated time points. The black line connects median values. (F) Kaplan-Meier survival curves of mice transplanted with either H or H/M cells and treated for 20 days with R788 or placebo (n=11). p-value is from a Mantel-Cox test. (G) Relative HOXA9 and MEIS1 mRNA expression in MV4-11 and KG1 cell lines, and in patient-derived AML cells as measured by qPCR, normalized to GAPDH expression (mean±SD, n=3). […] Actin was used as loading control for relative protein quantification. avg, average. […]

H cells [2] = test: treatment of mice transplanted with H cells; type: in vivo
Source text: as §1

H/M cells [3] = test: colony formation and replating assay; type: cell-based, mouse
Source text: (§2) To elucidate the molecular mechanisms underlying Meis1's contribution to leukemogenesis, a retroviral transplantation model was employed in which lineage-depleted mouse bone marrow cells were transduced with an MSCV-Hoxa9-PGK-neo construct, alone or in combination with an MSCV-Meis1-IRES-YFP construct that induced a 22-fold overexpression of Meis1. As reported by previously, the transformed cells could be cultured in vitro in the presence of IL3/IL6/SCF and expressed the expected immunophenotype characterized by the myeloid markers Mac-1 and Gr-1 as well as c-Kit (Pineault et al., 2005; Wang et al., 2005). When transplanted into irradiated recipient mice, cells transduced with Hoxa9 (H) or Hoxa9/Meis1 (H/M) gave rise to leukemia resulting in a median overall survival of 114 days and 41 days, respectively (p<0.001; FIG. 1A). This difference in survival is in accordance with previously published results and reflects the aggressiveness of Hoxa9/Meis1-driven AML observed in patients (Kroon et al., 1998).
The inventors next sought to characterize the functional consequences of Syk overexpression in the context of Hoxa9-driven leukemias. […]
To test whether the enhanced Syk signaling observed in H/M cells could be exploited therapeutically, the effects of Syk inhibitors and of an shRNA-mediated knockdown of Syk in H/M cells, in vitro and in vivo were analyzed.

H/S cells = test: colony formation and replating assay; type: cell-based, mouse
Source text: (§3) The inventors next sought to characterize the functional consequences of Syk overexpression in the context of Hoxa9-driven leukemias. For this purpose, the consequences of a lentiviral overexpression of human SYK (hSYK) in H cells in vitro and in vivo were examined. […] While Hoxa9 alone is sufficient to enable replating, both Meis1 and hSYK enhanced replating efficiency.

H cells [4] = test: colony formation and replating assay; type: cell-based, mouse
Source text: as §2, §3

H cells [5] = test: time-lapse microscopy and single-cell tracking; type: cell-based, mouse; conditions: compared with DMSO-treated cells, tracked over more than 50 hours
Experimental: (§4) The effect of Syk inhibition in H and H/M cells was further examined by monitoring the fate of individual cells and their progeny by time-lapse microscopy and single-cell tracking (Rieger et al., 2009). This allowed to track hundreds of H and H/M cells over more than 50 hours in real time and to record their history across cell generations. […] In addition, the inventors knocked down Syk in vivo by transplanting mice with cells that were either transduced with the doxycycline-inducible lentiviral Syk shRNAs or with control shRNAs and treating them with doxycycline for 43 days. Knockdown of Syk prolonged the survival of mice transplanted with H/M cells from a median time of 40.5 days in controls to a median of 103 days (p<0.001) (FIGS. 7C and 7D). Furthermore, mice transplanted with H/M or H cells were treated with the oral Syk inhibitor R788, a prodrug of R406.

H/M cells [6] = test: time-lapse microscopy and single-cell tracking; type: cell-based, mouse; conditions: compared with DMSO-treated cells, tracked over more than 50 hours
Experimental: as §4

[7] = test system: CD34+ progenitor cells isolated from healthy donors; test: relative viability of CD34+ bone marrow cells from healthy donors; type: cell-based, human
Experimental: Cells were treated for 24 h and DMSO was used as a control. (J) Relative viability of CD34+ bone marrow cells from healthy donors.

Structure (SMILES) | reduction of the percentage of leukemic cells (H/M cells [1]; seven days of treatment, oral, peripheral blood YFP-positive cells, on average) | median survival (H/M cells [1]; treatment for 20 days, placebo median 38 days, p<0.001) [days] | level of H cells (percentage of leukemic cells) (H cells [2]; seven days of treatment, oral) | survival (H cells [2]; treatment for 20 days) | colony formation potential and replating efficiency (H/M cells [3]) | replating efficiency (H/M cells [3]) | replating efficiency (H/S cells) | colony formation and replating efficiency (H cells [4]) | cell death (H cells [5]) | cell death (H/M cells [6]) | viability [7]
COc1cc(Nc2ncc(F)c(Nc3ccc4c(n3)N(COP(=O)(O)O)C(=O)C(C)(C)O4)n2)cc(OC)c1OC [R788, fostamatinib] | more than 70% | 130 | barely affecting | No significant effect |  |  |  |  |  |  | 
COc1cc(Nc2ncc(F)c(Nc3ccc4c(n3)NC(=O)C(C)(C)O4)n2)cc(OC)c1OC [R406] |  |  |  |  | significantly reduced | decreased replating efficiency | decreased replating efficiency | moderately affecting | not significantly affected | significant increase in cell death | did not affect the viability
